From patent publication US20220169632A1, “METHODS AND MATERIALS FOR INCREASING OR MAINTAINING NICOTINAMIDE MONONUCLEOTIDE ADENYLYL TRANSFERASE-2 (NMNAT2) POLYPEPTIDE LEVELS” (University of Pittsburgh - Of the Commonwealth System of …, priority 2019, published 2022)

System: NMNAT2
Experiment: NMNAT2-Hibit nano-luciferase activity in transfected U87MG cells, 25 μM, 24 hours
Assay type: cell-based
Settings: NMNAT2-Hibit luc plasmid; for B: compound efficacy (IC50) for NMNAT2 activation; increase in NMNAT2 luciferase activity: 24 hours (Table B); for C: Compound efficacy for NMNAT2 activation; increase in NMNAT2 luciferase activity: 24 hours (Table C)
Method: Selected compounds were tested in vitro. Briefly, U87MG cells were transfected with NMNAT2-Hibit luc plasmid. Cells were treated with a test compound at 25 μM for 24 hours. Cells were then collected and assayed for nano-luciferase activity.

| SMILES | B: compound efficacy (IC50) for NMNAT2 activation; increase in NMNAT2 luciferase activity | C: Compound efficacy for NMNAT2 activation; increase in NMNAT2 luciferase activity |
| --- | --- | --- |
| Cc1ccc2onc(CNC(=O)N(C)c3ccc(F)cc3)c2c1 [Compound 181087] | + (“+” <20% increase in NMNAT2 luciferase activity.) | – |
| O=C(Cn1cc(C(=O)C2CC2)c2ccccc21)NCc1ccco1 [Compound 181105] | – | + (“+” <20% increase in NMNAT2 luciferase activity.) |
| COc1cccc(CNC(=O)Cn2c(C)cc(C)c(C#N)c2=O)c1 [Compound 181125] | – | + (“+” <20% increase in NMNAT2 luciferase activity.) |
| Cc1ccc2onc(CNC(=O)Nc3ccc(F)cc3F)c2c1 [Compound 181042] | + (“+” <20% increase in NMNAT2 luciferase activity.) | – |
| CC(NC(=O)NCc1noc2ccccc12)c1ccccc1 (stereo not drawn) [Compound 181034] | + (“+” <20% increase in NMNAT2 luciferase activity.) | – |
| Cc1ccc(CNC(=O)Cn2c(C)cc(C)c(C#N)c2=O)cc1 [Compound 181121] | – | + (“+” <20% increase in NMNAT2 luciferase activity.) |
| Cc1ccc2onc(CNC(=O)NCc3ccccn3)c2c1 [Compound 181050] | + (“+” <20% increase in NMNAT2 luciferase activity.) | – |
| O=C(NCCn1ccc2cc(Br)ccc21)c1ccco1 [Compound 181158] | – | + (“+” <20% increase in NMNAT2 luciferase activity.) |
| Cc1ccc(NC(=O)NCc2noc3ccc(C)cc23)c(Cl)c1 [Compound 181062] | + (“+” <20% increase in NMNAT2 luciferase activity.) | – |
| O=C(NCc1noc2ccccc12)Nc1ccc(F)c(Cl)c1 [Compound 181005] | + (“+” <20% increase in NMNAT2 luciferase activity.) | – |
| Cc1ccc2onc(CNC(=O)NCc3ccccc3Cl)c2c1 [Compound 181081] | + (“+” <20% increase in NMNAT2 luciferase activity.) | – |
| CCOc1ccccc1CNC(=O)NCc1noc2ccccc12 [Compound 181020] | + (“+” <20% increase in NMNAT2 luciferase activity.) | – |
| Cc1cc(C)n(CC(=O)NCCC(C)C)c(=O)c1C#N [Compound 181131] | – | + (“+” <20% increase in NMNAT2 luciferase activity.) |
| Cc1ccc(Cn2cc(CCCC(=O)NCc3ccco3)c3ccccc32)cc1 [Compound 181114] | – | +++ (“+++” >100% increase in NMNAT2 luciferase activity.) |
| CN(C(=O)NCc1noc2ccccc12)c1ccc(Br)cc1 [Compound 181015] | + (“+” <20% increase in NMNAT2 luciferase activity.) | – |
| Cc1ccc2onc(CNC(=O)Nc3ccc(Cl)cc3)c2c1 [Compound 181080] | + (“+” <20% increase in NMNAT2 luciferase activity.) | – |
| COc1ccc(CNC(=O)NCc2noc3ccc(C)cc23)cc1 [Compound 181060] | ++ (“++” >20% and <100% increase in NMNAT2 luciferase activity.) | – |
| CSc1ccc(CCNC(=O)NCc2noc3ccccc23)cc1 [Compound 181033] | ++ (“++” >20% and <100% increase in NMNAT2 luciferase activity.) | – |
| O=C(NCc1ccccc1)NCc1noc2ccccc12 [Compound 181036] | + (“+” <20% increase in NMNAT2 luciferase activity.) | – |
| O=C(NCCn1ccc2ccc(Cl)cc21)c1ccco1 [Compound 181156] | – | + (“+” <20% increase in NMNAT2 luciferase activity.) |
| COc1ccccc1CNC(=O)Cn1c(C)cc(C)c(C#N)c1=O [Compound 181126] | – | + (“+” <20% increase in NMNAT2 luciferase activity.) |
| COc1ccccc1CNC(=O)NCc1noc2ccccc12 [Compound 181008] | + (“+” <20% increase in NMNAT2 luciferase activity.) | – |
| CCc1ccc(CNC(=O)NCc2noc3ccc(C)cc23)cc1 [Compound 181068] | ++ (“++” >20% and <100% increase in NMNAT2 luciferase activity.) | – |
| Cn1c(=O)c(=O)n(CC(=O)NCc2ccco2)c2ccccc21 [Compound 181136] | – | + (“+” <20% increase in NMNAT2 luciferase activity.) |
| Cc1cc(C)n(CC(=O)Nc2ccccc2C(=O)NCc2ccco2)c(=O)c1C#N [Compound 181135] | – | + (“+” <20% increase in NMNAT2 luciferase activity.) |
| Cc1ccc2onc(CNC(=O)NC3CCN(Cc4ccccc4)CC3)c2c1 [Compound 181065] | + (“+” <20% increase in NMNAT2 luciferase activity.) | – |
| O=C(Cn1cc(C(=O)C(F)(F)F)c2ccccc21)NCc1ccco1 [Compound 181101] | – | + (“+” <20% increase in NMNAT2 luciferase activity.) |

| SMILES | B: compound efficacy (IC50) for NMNAT2 activation; increase in NMNAT2 luciferase activity | C: Compound efficacy for NMNAT2 activation; increase in NMNAT2 luciferase activity |
| --- | --- | --- |
| Cc1cc(C)n(CC(=O)NCC2=CC=CC2)c(=O)c1C#N [Compound 181129] | – | + (“+” <20% increase in NMNAT2 luciferase activity.) |
| Cc1ccc(CNC(=O)Cn2c(=O)c(=O)n(C)c3ccccc32)o1 [Compound 181137] | – | + (“+” <20% increase in NMNAT2 luciferase activity.) |
| CC(=O)c1cn(CC(=O)NCc2ccco2)c2ccccc12 [Compound 181145] | – | + (“+” <20% increase in NMNAT2 luciferase activity.) |
| CCOc1ccc(CCNC(=O)NCc2noc3ccc(C)cc23)cc1 [Compound 181088] | + (“+” <20% increase in NMNAT2 luciferase activity.) | – |
| COc1ccc(OC)c(CNC(=O)NCc2noc3ccc(C)cc23)c1 [Compound 181072] | + (“+” <20% increase in NMNAT2 luciferase activity.) | – |
| COc1cccc(CNC(=O)NCc2noc3ccc(C)cc23)c1 [Compound 181076] | + (“+” <20% increase in NMNAT2 luciferase activity.) | – |
| Cc1ccc(NC(=O)NCc2noc3ccccc23)c(Br)c1 [Compound 181003] | + (“+” <20% increase in NMNAT2 luciferase activity.) | – |
| Cc1ccc2onc(CNC(=O)Nc3ccccc3Cl)c2c1 [Compound 181079] | + (“+” <20% increase in NMNAT2 luciferase activity.) | – |
| O=C(NCc1noc2ccccc12)Nc1cccc(C(F)(F)F)c1 [Compound 181002] | + (“+” <20% increase in NMNAT2 luciferase activity.) | – |
| CC(=O)c1cccc(NC(=O)NCc2noc3ccc(C)cc23)c1 [Compound 181084] | + (“+” <20% increase in NMNAT2 luciferase activity.) | – |
| CCn1ccc2cc(CCC(=O)NCc3ccco3)ccc21 [Compound 181141] | – | ++ (“++” >20% and <100% increase in NMNAT2 luciferase activity.) |
| Cc1ccc(CNC(=O)NCc2noc3ccccc23)cc1 [Compound 181022] | + (“+” <20% increase in NMNAT2 luciferase activity.) | – |
| O=C(NCc1cccc(Cl)c1)NCc1noc2ccccc12 [Compound 181025] | + (“+” <20% increase in NMNAT2 luciferase activity.) | – |
| Cc1ccc2onc(CNC(=O)Nc3ccccc3F)c2c1 [Compound 181043] | + (“+” <20% increase in NMNAT2 luciferase activity.) | – |
| Cc1ccc2c(c1)n(CC(=O)NCc1ccco1)c(=O)c1cccn12 [Compound 181113] | – | + (“+” <20% increase in NMNAT2 luciferase activity.) |
| Cc1ccc2onc(CNC(=O)NCc3cccnc3)c2c1 [Compound 181051] | + (“+” <20% increase in NMNAT2 luciferase activity.) | – |
| O=C(NCc1ccc(Cl)cc1)NCc1noc2ccccc12 [Compound 181029] | ++ (“++” >20% and <100% increase in NMNAT2 luciferase activity.) | – |
| Cc1ccc2onc(CNC(=O)NC3CCCC(C)C3C)c2c1 (stereo not drawn) [Compound 181046] | + (“+” <20% increase in NMNAT2 luciferase activity.) | – |
| Cc1cc2c(=O)n(CC(=O)NCc3ccco3)ccc2s1 [Compound 181140] | – | + (“+” <20% increase in NMNAT2 luciferase activity.) |
| CC(=O)c1c(C)n(CC(=O)NCc2ccco2)c2ccccc12 [Compound 181109] | – | + (“+” <20% increase in NMNAT2 luciferase activity.) |
| CCCN(C(=O)NCc1noc2ccc(C)cc12)c1ccc(Cl)c(Cl)c1 [Compound 181061] | + (“+” <20% increase in NMNAT2 luciferase activity.) | – |
| Cc1ccc(NC(=O)NCc2noc3ccccc23)c(Cl)c1 [Compound 181021] | + (“+” <20% increase in NMNAT2 luciferase activity.) | – |
| CC(CCc1ccco1)NC(=O)Cn1ccc2ccc(Br)cc21 (stereo not drawn) [Compound 181154] | – | ++ (“++” >20% and <100% increase in NMNAT2 luciferase activity.) |
| Cc1cc(C)n(CC(=O)NCc2ccccc2)c(=O)c1C#N [Compound 181120] | – | + (“+” <20% increase in NMNAT2 luciferase activity.) |
| Cc1ccc2onc(CNC(=O)N(C)c3cccc(Cl)c3)c2c1 [Compound 181055] | + (“+” <20% increase in NMNAT2 luciferase activity.) | – |
| CN(C(=O)NCc1noc2ccccc12)c1ccc(F)cc1 [Compound 181032] | + (“+” <20% increase in NMNAT2 luciferase activity.) | – |
| CCc1cccc(NC(=O)NCc2noc3ccc(C)cc23)c1 [Compound 181067] | + (“+” <20% increase in NMNAT2 luciferase activity.) | – |
